Tested on: Ep-CAM
Experiment: Discovery serum proteomics (Olink), UDCA-treated vs treatment-naïve PBC patients
Type: in vivo, human
Conditions: serum NPX, UDCA 13-15 mg/kg/day for >12 months (n=416) vs treatment-naïve (n=68)
Experimental: UDCA-Treated PBC: These were PBC patients who had been taking UDCA at a therapeutic dose (13-15 mg/kg/day) for greater than 12 months. Clinical parameters, including serum biochemistry were available both pre-treatment and after 12 months of UDCA therapy. This allowed all UDCA-treated patients to be assigned to responder and non-responder groups using current standard criteria including Paris 1 (Alanine Transaminase (ALT)>2× upper limit of normal [ULN], Alkaline Phosphatase (ALP)>3×ULN, Bilirubin>1×ULN) (Corpechot et al., 2008), Paris 2 (ALP and ALT both >1.5×ULN)(Corpechot et al., 2011) and POISE (ALP <1.67×ULN and bilirubin <1×ULN) (Nevens et al., 2016). UK-PBC risk score 10-year predicted survival was also calculated for UDCA-treated patients after therapy. Patients taking fibrates and or OCA were not included in the current study. […]
Blood was collected under the approval of the Human Tissue Authority (HTA) by the UK-PBC tissue Bioresource with written informed patient consent obtained in accordance with research and ethics committee (REC) approval (14/NW/1146). […] 4 μl serum was analysed for 368 analytes from 4 distinct panels including Cardiovascular II &Ill, Inflammation and Oncology II (https://www.olink.com/). […] In turn, this was amplified by microfluidic quantitative PCR with normalised protein expression (NPX) data generated by a ΔΔct calculation method. […]

## C[C@H](CCC(=O)O)[C@H]1CC[C@H]2[C@@H]3[C@@H](O)C[C@@H]4C[C@H](O)CC[C@]4(C)[C@H]3CC[C@]12C [UDCA, Ursodeoxycholic acid]
  log Fold Change of serum protein, UDCA Tx vs Naïve Tx: −0.84

Source: US20230305022A1, “Biomarkers in Primary Biliary Cholangitis” (University of Newcastle upon Tyne, priority 2020, published 2023)
